Measured values reported in patent US9284283B2, “Macrocyclic compounds for modulating IL-17” (ENSEMBLE THERAPEUTICS CORPORATION, priority 2012, dated 2016).
pIC50: −log10 of the molar value. Read-outs that look alike come from different tables or passages of the source.

Columns and labels:
[1] = biological target: T1, biotinylated human IL-17 (binding to IL17R/Fc) (Homo sapiens, UniProt Q16552); test: IL-17 competition ELISA II (captured IL17R/Fc, biotinylated IL-17)
T1 construct: purchased R&D Systems 317-ILB (IL-17, biotinylated); 177-IR (IL17R/Fc)
T1 sequence (Q16552 20-155 limits assumed): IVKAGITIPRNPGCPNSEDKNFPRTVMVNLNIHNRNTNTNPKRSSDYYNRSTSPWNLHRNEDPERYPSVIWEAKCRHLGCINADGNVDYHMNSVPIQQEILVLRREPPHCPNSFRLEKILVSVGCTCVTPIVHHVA
How it was run: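 Competition read-out: absorbance at 450 nm after streptavidin-HRP/TMB detection, fitted to a 4-parameter logistic model bounded by no-competitor and blank wells to give IC50. Compound was serially diluted 5-fold from 1 μM alongside 20 nM (stock) biotinylated IL-17 on IL17R/Fc (10 nM) captured via goat anti-human IgG, 30 min at room temperature.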

[2] = system: IL-17A induced secretion of IL-6 in primary human RASF cells; test: Inhibition of IL17A induced secretion of IL6 in human rheumatoid arthritis synovial fibroblast (RASF) cells; assay type: cell-based
Experimental: This assay was used to determine the extent of inhibition of IL-17A induced secretion of IL-6 in primary human rheumatoid synovial fibroblast (RASF) cells by compounds of the invention. IL-17A is known to stimulate IL-6 production in RASF cells.
Low passage (passage 2-8) Primary human RASF cells (Asterand) were maintained in maintenance medium. Cells were detached from flasks by tryptic digestion and the cell density of the suspension determined. To each well of a 96 well culture plate was added 100 μL of seeding medium containing 50,000 cells/mL and the plate incubated overnight in a humidified 37° C., 5% CO2 incubator. The medium was replaced with fresh assay medium and cells were incubated for additional 5 hours in a humidified 37° C., 5% CO2 incubator prior to stimulation with recombinant human IL-17A (“rhIL-17A”). Prior to addition to cells, rhIL-17A (30 ng/mL) in assay medium was incubated with either DMSO alone, compounds, or anti-IL17 receptor antibody (3 μg/mL) for 1 hour at 37° C. The final concentration of DMSO in all samples was 0.25%. The final concentration of compounds varied from 0.03 μM to 25 μM.
Immediately before stimulation, cells were washed once with fresh assay medium. Then, 100 μL of the test samples was added in triplicate wells and the plates incubated for 20 hours in a humidified 37° C., 5% CO2 incubator. The assay medium from each well was collected and the IL-6 concentration in cell culture supernatants was determined by ELISA either immediately or after storage at −20° C.
A water-soluble tetrazolium salt (WST1) viability assay was immediately performed on the cells after the conditioned medium was collected using a WST1 reagent purchased from Roche. The concentration of IL-6 obtained from ELISA was normalized by the WST1 data.

pIC50 [1] | SMILES | pIC50 ([2]; Homo sapiens, Fibroblast) | pIC50 [2]
> 7.00 | O=C1CC2(CCCC2)CC(=O)N[C@H](Cc2ccc(NC(=O)[C@H](Cc3ccccc3Cl)NC(=O)Cc3ccc(F)cc3)cc2)C(=O)NCC#CCCCCCN1 [Compound 446] | 6.00 to 7.00 | –
> 7.00 | C[C@H]1NC(=O)[C@@H](Cc2ccc(NC(=O)[C@H](Cc3ccccc3Cl)NC(=O)C(F)(F)c3ccccc3)cc2)NC(=O)CC2(CCCC2)CC(=O)N(C)CCOCCN(C)C1=O [Compound 567] | 6.00 to 7.00 | –
> 7.00 | C[C@H]1NC(=O)[C@@H](Cc2ccc(NC(=O)[C@H](Cc3ccccc3Cl)NC(=O)Cc3ccc(F)cc3)cc2)NC(=O)CC2(CCCC2)CC(=O)N[C@H](C(=O)O)CCCCNC1=O [Compound 529] | > 7.00 | –
> 7.00 | C[C@H]1NC(=O)[C@@H](Cc2ccc(NC(=O)[C@H](Cc3ccccc3C(F)(F)F)NC(=O)C3(c4ccc(F)cc4)CC3)cc2)NC(=O)CC2(CCCC2)CC(=O)N(C)CCCCCNC1=O [Compound 507] | 5.00 to 6.00 | –
6.00 to 7.00 | CN(C)CCOc1ccc(CC(=O)N[C@H](C(=O)Nc2ccc(C[C@H]3NC(=O)CC4(CCCC4)CC(=O)NCCCCCNC(=O)[C@@H](Cc4ccccc4)NC3=O)cc2)C2CCCCC2)cc1 [Compound 437] | 5.00 to 6.00 | –
> 7.00 | O=C1CC2(CCCC2)CC(=O)N[C@H](Cc2ccc(NC(=O)[C@H](Cc3ccccc3Cl)NC(=O)Cc3ccc(OCCN4CCOCC4)cc3)cc2)C(=O)N[C@H](Cc2ccccc2)C(=O)NCCCCCN1 [Compound 439] | 6.00 to 7.00 | –
> 7.00 | CC1NC(=O)C(Cc2ccc(NC(=O)C(Cc3ccccc3Cl)NC(=O)Cc3ccc(F)cc3)cc2)NC(=O)C2(CCCC2)CCC(=O)NCCCCCNC1=O (stereo not shown) [Compound 561] | – | 5.00 to 6.00
> 7.00 | C[C@H]1NC(=O)[C@@H](Cc2ccc(NC(=O)[C@@H](NC(=O)C(F)(F)c3ccccc3)C3CCCCC3)cc2)NC(=O)CC2(CCCC2)CC(=O)N(C)CCCCCN(C)C1=O [Compound 600] | 5.00 to 6.00 | –
> 7.00 | O=C1CC2(CCCC2)CC(=O)N[C@H](Cc2ccc(NC(=O)[C@H](Cc3ccccc3Cl)NC(=O)Cc3cccc(O)c3)cc2)C(=O)NCCCCCCCCN1 [Compound 441] | 6.00 to 7.00 | –
> 7.00 | C[C@H]1NC(=O)[C@@H](Cc2ccc(NC(=O)[C@H](Cc3ccccc3Cl)NC(=O)C3(c4ccc(F)cc4)CC3)cc2)NC(=O)CC2(CCCC2)CC(=O)NCCCCCNC1=O [Compound 427] | 5.00 to 6.00 | –
> 7.00 | Cc1ccccc1C[C@H](NC(=O)Cc1ccc(F)cc1)C(=O)Nc1ccc(C[C@H]2NC(=O)CC3(CCCC3)CC(=O)NCCCCCNC(=O)[C@@H](C)NC2=O)cc1 [Compound 476] | 6.00 to 7.00 | –
> 7.00 | C[C@H]1NC(=O)[C@@H](Cc2ccc(NC(=O)[C@H](Cc3ccccc3Cl)NC(=O)C3(c4ccc(F)cc4)CC3)cc2)NC(=O)CC2(CCCC2)CC(=O)N[C@H](C(=O)O)CCCCNC1=O [Compound 513] | 6.00 to 7.00 | –
> 7.00 | C[C@H]1NC(=O)[C@@H](Cc2ccc(NC(=O)[C@H](Cc3ccccc3Cl)NC(=O)C(=O)c3ccccc3)cc2)NC(=O)CC2(CCCC2)CC(=O)NCCCCCNC1=O [Compound 549] | > 7.00 | –
> 7.00 | CN1CCNC(=O)CC2(CCCC2)CC(=O)N[C@H](Cc2ccc(NC(=O)[C@H](Cc3ccccc3Cl)NC(=O)Cc3ccccc3)cc2)C(=O)NCC1 [Compound 399] | 5.00 to 6.00 | –
> 7.00 | C[C@H]1NC(=O)[C@@H](Cc2ccc(NC(=O)[C@H](Cc3ccccc3Cl)NC(=O)Cc3ccc(F)cc3)cc2)NC(=O)CC2(CCCC2)CC(=O)N(C)CCCCCNC1=O [Compound 469] | 5.00 to 6.00 | –
> 7.00 | C[C@H]1NC(=O)[C@@H](Cc2ccc(NC(=O)[C@H](Cc3ccccc3Cl)NC(=O)Cc3ccc(N(C)C)cc3)cc2)NC(=O)CC2(CCCC2)CC(=O)NCCCCCNC1=O [Compound 552] | > 7.00 | –
> 7.00 | CN(C)c1ccc(CC(=O)N[C@@H](Cc2ccccc2Cl)C(=O)Nc2ccc(C[C@H]3NC(=O)CC4(CCCC4)CC(=O)NCCOCCOCCNC3=O)cc2)cc1 [Compound 553] | 6.00 to 7.00 | –
> 7.00 | O=C1CNC(=O)[C@@H](Cc2ccc(NC(=O)[C@H](Cc3ccccc3Cl)NC(=O)Cc3ccc(NC(=O)CNCc4ccccc4)cc3)cc2)NC(=O)CC2(CCCC2)CC(=O)NCCCCCN1 [Compound 405] | 6.00 to 7.00 | –

pIC50 [1] | SMILES | pIC50 ([2]; Homo sapiens, Fibroblast) | pIC50 [2]
> 7.00 | O=C1CC2(CCCC2)CC(=O)N[C@H](Cc2ccc(NC(=O)[C@H](Cc3ccccc3Cl)NC(=O)Cc3ccc(CO)cc3)cc2)C(=O)N[C@H](Cc2c[nH]cn2)C(=O)NCCCC[C@@H](C(=O)O)N1 [Compound 662] | > 7.00 | –
> 7.00 | NC(=O)CC[C@H]1NC(=O)[C@@H](Cc2ccc(NC(=O)[C@H](Cc3ccccc3Cl)NC(=O)Cc3ccc(F)cc3)cc2)NC(=O)CC2(CCCC2)CC(=O)NCCCCCNC1=O [Compound 479] | > 7.00 | –
> 7.00 | O=C1CC2(CCCC2)CC(=O)N[C@H](Cc2ccc(NC(=O)[C@H](Cc3ccccc3Cl)NC(=O)Cc3ccc(CO)cc3)cc2)C(=O)N[C@H](Cc2c[nH]c3ccccc23)C(=O)NCCCC[C@@H](C(=O)O)N1 [Compound 661] | > 7.00 | –
> 7.00 | C[C@H]1NC(=O)[C@@H](Cc2ccc(NC(=O)[C@H](Cc3ccccc3Cl)NC(=O)Cc3ccc(N(C)C)cc3)cc2)NC(=O)CC2(CCCC2)CC(=O)N(C)CCOCCN(C)C1=O [Compound 584] | 5.00 to 6.00 | –
> 7.00 | CN1CCCCCNC(=O)CNC(=O)[C@@H](Cc2ccc(NC(=O)[C@H](Cc3ccccc3Cl)NC(=O)Cc3cccc(O)c3)cc2)NC(=O)CC2(CCCC2)CC1=O [Compound 457] | 5.00 to 6.00 | –
> 7.00 | O=C1CC2(CCCC2)CC(=O)N[C@H](Cc2ccc(NC(=O)[C@H](Cc3ccccc3Cl)NC(=O)Cc3ccc(CO)cc3)cc2)C(=O)N[C@@H](CO)C(=O)NCCCC[C@@H](C(=O)O)N1 [Compound 455] | > 7.00 | –
> 7.00 | O=C1CC2(CCCC2)CC(=O)N[C@H](Cc2ccc(NC(=O)[C@H](Cc3ccccc3Cl)NC(=O)Cc3ccc(CO)cc3)cc2)C(=O)N[C@H](Cc2cscn2)C(=O)NCCCC[C@@H](C(=O)O)N1 [Compound 658] | > 7.00 | –
> 7.00 | Cc1ccc(CC(=O)N[C@@H](Cc2ccccc2Cl)C(=O)Nc2ccc(C[C@H]3NC(=O)CC4(CCCC4)CC(=O)NCCOCCOCCNC3=O)cc2)cc1 [Compound 494] | 6.00 to 7.00 | –
> 7.00 | O=C1CC2(CCCC2)CC(=O)N[C@H](Cc2ccc(NC(=O)[C@@H](NC(=O)Cc3ccc(F)cc3)C3CCCCC3)cc2)C(=O)NCCOCCOCCN1 [Compound 424] | < 5.00 | –
> 7.00 | O=C1CC2(CCCC2)CC(=O)N[C@H](Cc2ccc(NC(=O)[C@H](Cc3ccccc3Cl)NC(=O)Cc3ccc(CO)cc3)cc2)C(=O)N[C@H](Cc2cccnc2)C(=O)NCCCC[C@@H](C(=O)O)N1 [Compound 657] | > 7.00 | –
> 7.00 | C[C@H]1NC(=O)[C@@H](Cc2ccc(NC(=O)[C@H](Cc3ccccc3Cl)NC(=O)Cc3ccc(F)cc3)cc2)NC(=O)CC2(CCC2)CC(=O)NCCCCCNC1=O [Compound 535] | 5.00 to 6.00 | –
> 7.00 | C[C@H]1NC(=O)[C@@H](Cc2ccc(NC(=O)[C@H](Cc3ccccc3Cl)NC(=O)[C@@H](O)c3ccccc3)cc2)NC(=O)CC2(CCCC2)CC(=O)NCCCCCNC1=O [Compound 550] | 5.00 to 6.00 | –
> 7.00 | NC(=O)C[C@H]1NC(=O)[C@@H](Cc2ccc(NC(=O)[C@H](Cc3ccccc3Cl)NC(=O)Cc3ccc(CO)cc3)cc2)NC(=O)CC2(CCCC2)CC(=O)N[C@H](C(=O)O)CCCCNC1=O [Compound 656] | > 7.00 | –
> 7.00 | C[C@H]1NC(=O)[C@@H](Cc2ccc(NC(=O)[C@H](Cc3ccccc3Cl)NC(=O)Cc3ccc(CO)cc3)cc2)NC(=O)CC2(CCCC2)CC(=O)NCCCCCNC1=O [Compound 487] | > 7.00 | –
> 7.00 | CN1CCCCCN(C)C(=O)[C@@H](CCC(N)=O)NC(=O)[C@@H](Cc2ccc(NC(=O)[C@@H](NC(=O)Cc3ccc(N(C)C)cc3)C3CCCCC3)cc2)NC(=O)CC2(CCCC2)CC1=O [Compound 626] | 6.00 to 7.00 | –
> 7.00 | C[C@H]1NC(=O)[C@@H](Cc2ccc(NC(=O)[C@H](Cc3ccccc3Cl)NC(=O)Cc3ccc(F)cc3)cc2)NC(=O)CC2(CCCC2)CC(=O)N(C)CCN(C)CCN(C)C1=O [Compound 539] | 5.00 to 6.00 | –
> 7.00 | O=C1CC2(CCCC2)CC(=O)N[C@H](Cc2ccc(NC(=O)[C@H](Cc3ccccc3Cl)NC(=O)OCc3ccccc3)cc2)C(=O)NCCOCCOCCN1 [Compound 484] | 6.00 to 7.00 | –
